According to ChEMBL document CHEMBL1133500, “Active site binding modes of HIV-1 integrase inhibitors” (J Med Chem, 2000):

Key:
[1] = Inhibitory activity against ASV (avian sarcoma virus) integrase; Range 40-350 uM
[2] = biological target: T1, Human immunodeficiency virus type 1 integrase (Human immunodeficiency virus 1, UniProt Q7ZJM1)
[3] = biological target: T1, Human immunodeficiency virus type 1 integrase; remark: listed apart in the source

T1 sequence (Q7ZJM1 whole entry): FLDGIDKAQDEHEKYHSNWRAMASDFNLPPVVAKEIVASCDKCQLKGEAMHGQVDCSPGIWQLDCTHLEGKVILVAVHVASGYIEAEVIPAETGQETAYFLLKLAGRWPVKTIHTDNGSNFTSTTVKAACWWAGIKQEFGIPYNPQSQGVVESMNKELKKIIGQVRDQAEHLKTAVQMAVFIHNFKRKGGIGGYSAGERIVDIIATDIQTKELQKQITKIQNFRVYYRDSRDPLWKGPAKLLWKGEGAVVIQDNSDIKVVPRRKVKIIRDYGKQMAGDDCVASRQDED

Compound	IC50 [1] [µM]	IC50 [2] [µM]	Kd [3] [µM]
CC(=O)Nc1cc(S(=O)(=O)O)cc2cc(S(=O)(=O)O)cc(O)c12	< 350	–	–
O=C1c2ccc(O)c(O)c2C(=O)c2c(O)ccc(O)c21 [QUINALIZARIN]	–	< 17	< 15
